# Like-named read-outs stand apart in the source and are kept apart here.
# Tests used:
# [1] = test system: LPS-induced iNOS-dependent NO production in RAW 264.7 cells; assay: Inhibition of LPS-induced iNOS-dependent NO production (Griess nitrite assay); assay type: cell-based, murine; details: RAW 264.7, 100 ng/mL LPS, 24 h; for NO level: nitrite by Griess, in µM (unit assumed); for inhibition at 12.5 µM / inhibition at 25 µM / inhibition at 50 µM / IC50 / inhibition at 100 µM: Mus musculus, RAW264.7; for inhibition at 12.5 µM: read-out: NO inhibition (% of control); for inhibition at 25 µM / inhibition at 50 µM / inhibition at 100 µM: read-out: NO inhibition (% of control) (converted)
# Excerpt: The isolated compounds 1–9 were subjected into the examination of their effects on LPS-induced iNOS-dependent NO production in RAW 264.7 cells. […] The inhibitory effects of 1, 4 and 9 were less obvious. […] Among the tested compounds, 2, and 5–8 belonged to the ent-kaurane diterpenoids noted for the occurrence in the Annona species.
# NO production was indirectly assessed by measuring the nitrite levels in the cultured media and serum determined by a colorimetric method based on the Griess reaction. The cells were incubated with a test sample in the presence of LPS (100 ng/mL) at 37 °C for 24 h. Then, cells were dispensed into 96-well plates, and 100 μL of each supernatant was mixed with the same volume of Griess reagent (1% sulfanilamide, 0.1% naphthyl ethylenediamine dihydrochloride, and 5% phosphoric acid) and incubated at room temperature for 10 min, the absorbance was measured at 540 nm with a Micro-Reader (Molecular Devices). By using sodium nitrite to generate a standard curve, the concentration of nitrite was measured form absorbance at 540 nm.
# Experimental results were presented as the mean ± standard deviation (SD) of three parallel measurements. Statistical comparisons were made by Student’s t-test. IC50 values were estimated using a non-linear regression algorithm (SigmaPlot 8.0; SPSS Inc. Chicago, IL, USA). Statistical significance is expressed as * p < 0.05, ** p < 0.01, and *** p < 0.001.
# RAW 264.7 cells [2] = test system: RAW 264.7 cells
# Description: (§1) A murine macrophage cell line RAW264.7 (BCRC No. 60001) was purchased from the Bioresources Collection and Research Center (BCRC) of the Food Industry Research and Development Institute (Hsinchu, Taiwan). Cells were cultured in plastic dishes containing Dulbecco’s Modified Eagle Medium (DMEM, Sigma, St. Louis, MO, USA) supplemented with 10% fetal bovine serum (FBS, Sigma, USA) in a CO2 incubator (5% CO2 in air) at 37°C and subcultured every 3 days at a dilution of 1:5 using 0.05% trypsin–0.02% EDTA in Ca^2+-, Mg^2+- free phosphate-buffered saline (DPBS).
# (§2) Cells (2 × 10^5) were cultured in 96-well plate containing DMEM supplemented with 10% FBS for 1 day to become nearly confluent. Then cells were cultured with samples in the presence of 100 ng/mL LPS for 24 h. After that, the cells were washed twice with DPBS and incubated with 100 μL of 0.5 mg/mL MTT for 2 h at 37 °C testing for cell viability. The medium was then discarded and 100 μL dimethyl sulfoxide (DMSO) was added. After 30-min incubation, absorbance at 570 nm was read using a microplate reader (Molecular Devices, Sunnyvale, CA, USA).
# RAW 264.7 cells [3] = assay: Cell viability (MTT) in the presence of LPS; details: RAW 264.7, 100 ng/mL LPS, 24 h; for Cell viability (% of control): MTT; for Cell toxicity (in words): 12.5–100 μM
# Description: as §1, §2
# [4] = test system: LPS-induced RAW264.7 macrophages; design: method as in PMID 21211951; details: cited from earlier work
# macrophages = test system: macrophages; design: method as in PMID 23333629; details: by interfering with the activation of TAK1 and Akt, preventing NF-κB activation; cited from earlier work
# platelet aggregation = test system: platelet aggregation; design: method as in PMID 12398544; details: isolated from the stems of A. squamosa; cited from earlier work
SMILES,NO level ([1]; 12.5 μM),NO level ([1]; 25 μM),inhibition at 12.5 µM ([1]; 12.5 μM) [%],inhibition at 25 µM ([1]; 25 μM) [%],Inhibitory effect on NO production (in words) [1],NO level ([1]; 50 μM),inhibition at 50 µM ([1]; 50 μM) [%],IC50 [1] [µM],Cell viability (% of control) (RAW 264.7 cells [3]; 12.5 μM),Cell viability (% of control) (RAW 264.7 cells [3]; 25 μM),Cell viability (% of control) (RAW 264.7 cells [3]; 50 μM),Cell viability (% of control) (RAW 264.7 cells [3]; 100 μM),Cell toxicity (in words) (RAW 264.7 cells [3]),NO level ([1]; 100 μM),inhibition at 100 µM ([1]; 100 μM) [%],other results
"C=C(C)C(CC[C@@H](CO)[C@H]1CC[C@@]2(C)C3CCC4C(C)(C)[C@@H](O)[C@H](O)C[C@@]45C[C@@]35CC[C@]12C)C(C)C (stereo partly shown) [Compound 1, annonaretin A]",36.6 ± 1.9,33.5 ± 0.9,19.3 ± 4.2,26.2,less obvious,–,–,–,–,–,–,–,–,–,–,Cell viability (% of control) (RAW 264.7 cells [2]; 12.5 µM): 88.0 ± 1.5 % of control; Cell viability (% of control) (RAW 264.7 cells [2]; 25 µM): 81.2 ± 1.8 % of control; Cell viability (% of control) (RAW 264.7 cells [2]; 50 µM): 73.0 ± 3.6 % of control; Cell viability (% of control) (RAW 264.7 cells [2]; 100 µM): 66.9 ± 5.5 % of control
"C=C1C[C@@]23CC[C@H]4[C@@](C)(CCC[C@@]4(C)C(=O)O)[C@@H]2CC[C@@H]1C3 [Compound 2, kaurenoic acid]",34.3 ± 4.7,35.1 ± 1.2,24.5 ± 10.2,22.7,–,22.7 ± 0.5,50,50 ± 0.3,98.0 ± 2.2 % of control,91.0 ± 3.6 % of control,82.9 ± 1.2 % of control,65.7 ± 8.6 % of control,Some cell toxicity was observed,–,–,"Inhibition of NO production, prostaglandin E2 release, cyclooxygenase-2 and inducible nitric oxide synthase expression (in words) [4]: inhibit NO production"
"CC1(C)CC[C@]2(C)CC=C3[C@]4(C)CC[C@H]5C(C)(C)[C@@H](O)CC[C@]5(C)[C@H]4CC[C@@]3(C)[C@@H]2C1 [Compound 3, taraxerol]",38.5 ± 2.3,39.5 ± 0.6,15.2 ± 5,13.1,–,35.6 ± 0.9,21.6,99.8 ± 0.4,93.5 ± 1.8 % of control,92.6 ± 3.1 % of control,88.7 ± 1.8 % of control,81.4 ± 2.3 % of control,–,22.6 ± 0.4,50.1,Expression of proinflammatory mediators (in words) (macrophages): downregulate the expression of proinflammatory mediators
"CC[C@H](CC[C@@H](C)[C@H]1CC[C@H]2[C@@H]3CC=C4C[C@@H](O)CC[C@]4(C)[C@H]3CC[C@]12C)C(C)C [Compound 4, β-sitosterol]",38.4 ± 0.7,38.6 ± 3.3,15.5 ± 1.5,15.1,less obvious,–,–,–,82.8 ± 2.7 % of control,80.7 ± 3.8 % of control,65.3 ± 2.3 % of control,55.8 ± 2.7 % of control,Some cell toxicity was observed,–,–,–
"C[C@@]12CCC[C@](C)(C=O)C1CCC13CC(CCC12)C(C(=O)O)C3 (stereo partly drawn) [Compound 5, 16α-hydro-19-al-ent-kauran-17-oic acid]",38.3 ± 1.3,33.1 ± 1.0,15.5 ± 2.8,27.1,–,22.1 ± 1.5,51.4,48.6 ± 1.2,98.9 ± 5.2 % of control,96.5 ± 9.2 % of control,95.9 ± 8.6 % of control,80.2 ± 5.7 % of control,–,14.8 ± 0.7,67.3,Anti-platelet aggregation activity (in words) (platelet aggregation): exhibit anti-platelet aggregation activity
"CC[C@H](CC[C@@H](C)[C@H]1CC[C@H]2[C@@H]3C[C@@H](O)C4=CC(=O)CC[C@]4(C)[C@H]3CC[C@]12C)C(C)C [Compound 6, 6β-hydroxystigmast-4-en-3-one]",37.0 ± 1.8,33.1 ± 2.4,18.5 ± 4,27.1,–,22.9 ± 1.1,49.5,51.5 ± 0.5,94.8 ± 3.1 % of control,83.7 ± 3.5 % of control,83.5 ± 3.0 % of control,81.3 ± 2.8 % of control,–,15.1 ± 0.3,66.7,–
"CC(=O)OCC1CC23CCC4[C@@](C)(CCC[C@]4(C)C(=O)O)C2CCC1C3 (stereo partly drawn) [Compound 7, 17-acetoxy-16β-ent-kauran-19-oic acid]",42.6 ± 0.7,40.6 ± 2.8,6.2 ± 1.5,10.6,–,23.7 ± 0.2,47.7,55.5 ± 0.3,98.6 ± 3.1 % of control,93.6 ± 4.0 % of control,92.5 ± 2.8 % of control,83.7 ± 1.6 % of control,–,14.3 ± 0.3,68.5,–
"C[C@@]12CCC[C@](C)(C(=O)O)C1CCC13CC(CCC12)C(C(=O)O)C3 (stereo partly drawn) [Compound 8, 16α-hydro-ent-kauran-17,19-dioic acid]",39.8 ± 1.2,35.4 ± 0.8,12.3 ± 2.6,21.9,–,23.5 ± 0.9,48.2,54.5 ± 0.8,98.4 ± 3.2 % of control,94.0 ± 2.6 % of control,88.6 ± 2.6 % of control,82.4 ± 1.2 % of control,–,14.4 ± 0.3,68.3,melting point: 120 to 121 °C
"COc1ccc([C@@H]2CC(=O)c3ccc(OC)cc3O2)cc1 [Compound 9, (2S)-di-O-methylquiritigenin]",42.0 ± 1.2,40.4 ± 0.7,7.5 ± 2.7,11,less obvious,25.9 ± 2.3,42.9,–,99.9 ± 4.8 % of control,90.0 ± 1.6 % of control,82.6 ± 2.7 % of control,76.2 ± 1.1 % of control,Some cell toxicity was observed,–,–,–
